Values belong to the molecule of their own block, whether it stands above or below them. Where a SMILES comes first, the peptide text is derived from it. [ ]: non-standard residue; d: D form. Sta = CC(C)C[C@H](N)[C@@H](O)CC(=O)O
Assays:
[1] = test system: Tg2576 mice; details: 12 month-old female Tg2576 mice, 3 weeks; cited from earlier work
[2] = test system: PSAPP mice; details: 250 mg/kg/day orally, 5 weeks; cited from earlier work
[3] = molecular target: T1, purified recombinant human BACE1 (Homo sapiens, UniProt P56817); experiment: In vitro fluorometric BACE1 activity assay; type: biochemical; details: increasing amounts of compound, 2 hours
T1 construct: purchased R&D systems
Experimental: A fluorometric β-secretase activity kit was used for detecting BACE1 activity in vitro. Reaction was done according to the manufacturer's instructions with slight modifications. Briefly, 1 μg of purified recombinant human BACE1 (R&D systems) was resuspended in 10 μl of 1× cell extraction buffer (R&D systems) and incubated with EDANS/DABCYL-[…] substrate peptide in the absence or presence of indicated account of CP-113,818 for 2 hours. Released EDANS fluorescence was measured by a fluorescent plate reader (Analyst AD, LJL Biosystems). As a negative control, a specific β-secretase inhibitor, GL-189 (Calbiochem) was added to one of the samples with the indicated concentration.

[4] = test system: CHO cells; details: 4 μM; cited from earlier work
[5] = test system: γ-secretase; experiment: In vitro generation of APP intracellular domain (AICD), γ-secretase activity assay on CHO cell membrane fractions; type: biochemical, Chinese hamster; details: CHO cell (overexpressing APP) membrane fractions, increasing amounts of compound
Experimental: Membrane preparation and in vitro generation of AICD were performed as described (Gu et al., 2001; Kim et al., 2002). P2 membrane fractions were prepared from CHO cells overexpressing wild type APP and resuspended in Buffer H (20 mM HEPES, 150 mM NaCl, 10% glycerol, 5 mM EDTA, pH 7.4) with protease inhibitors. In vitro cleavage experiments were performed by incubating the membrane fractions at 0° C. or 37° C. for 1 hour with the indicated amounts of CP-113,818. As a negative control, a specific γ-secretase inhibitor, L-685,458, was added to one of the samples.

T1 sequence (P56817 46-501): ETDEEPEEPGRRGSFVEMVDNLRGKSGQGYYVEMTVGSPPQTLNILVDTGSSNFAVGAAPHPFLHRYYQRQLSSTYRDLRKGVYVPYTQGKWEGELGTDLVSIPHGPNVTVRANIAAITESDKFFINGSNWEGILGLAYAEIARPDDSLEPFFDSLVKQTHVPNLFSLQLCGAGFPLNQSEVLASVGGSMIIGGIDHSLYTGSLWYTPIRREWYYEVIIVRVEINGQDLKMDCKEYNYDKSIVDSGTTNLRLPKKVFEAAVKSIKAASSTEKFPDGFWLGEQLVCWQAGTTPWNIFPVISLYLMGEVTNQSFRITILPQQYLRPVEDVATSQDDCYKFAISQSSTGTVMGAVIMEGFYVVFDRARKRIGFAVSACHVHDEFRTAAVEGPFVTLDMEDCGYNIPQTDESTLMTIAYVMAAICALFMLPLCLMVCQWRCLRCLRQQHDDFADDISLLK

SMILES: CC[C@H](C)C(=O)O[C@H]1C[C@@H](C)C=C2C=C[C@H](C)[C@H](CC[C@@H]3C[C@@H](O)CC(=O)O3)[C@H]21 [lovastatin]
- Aβ pathology in female animals [1]: increasing Aβ pathology

SMILES: O=C(O)c1ccc(CCN2CCN(C/C=C/c3ccc(Cl)cc3)CC2)cc1 [BM15.766]
- reduction of amyloid load [2]: 53%
- reduction of formic acid-extracted Aβ40 [2]: 58%
- reduction of formic acid-extracted Aβ42 [2]: 48%

- effect on BACE1 activity in vitro [3]: significantly reduces BACE1 activity
SMILES: CC(C)C[C@H](NC(=O)[C@H](CC(N)=O)NC(=O)[C@@H](NC(=O)[C@@H](N)CCC(=O)O)C(C)C)[C@@H](O)CC(=O)N[C@H](C(=O)N[C@@H](C)C(=O)N[C@@H](CCC(=O)O)C(=O)N[C@@H](Cc1ccccc1)C(N)=O)C(C)C [GL-189] (H-EVN[Sta]VAEF-NH2)

SMILES: CC(C)c1cc(C(C)C)c(CC(=O)NS(=O)(=O)Oc2c(C(C)C)cccc2C(C)C)c(C(C)C)c1 [avasimibe]
- inhibition of Aβ generation [4]: approximately 60%

SMILES: CC(C)C[C@H](NC(=O)[C@H](Cc1ccccc1)C[C@@H](O)[C@H](Cc1ccccc1)NC(=O)OC(C)(C)C)C(=O)N[C@@H](Cc1ccccc1)C(N)=O [L-685,458]
- effect on γ-secretase activity (AICD generation) in vitro [5]: inhibits APP intracellular domain (AICD) generation
